Laboratory results: PMC10537604, “Development and Assessment of 1,5–Diarylpyrazole/Oxime Hybrids Targeting EGFR and JNK–2 as Antiproliferative Agents: A Comprehensive Study through Synthesis, Molecular Docking, and Evaluation” (Molecules, 2023)
Like-named read-outs stand apart in the source and are kept apart here.

How the values were obtained:
[1] = test system: human colorectal adenocarcinoma cell line DLD-1; assay: WST-8 antiproliferative assay, DLD-1; type: cell-based
Procedure: (§1) Compounds 7a–j, 8a–j, 9a–c, and 10a–c were evaluated for in vitro anticancer activities against five different cancer cell lines, namely, human colorectal adenocarcinoma cell lines DLD-1, human cervical cancer cell line Hela, human pancreatic cancer cell line SUIT-2, human myelogenous leukemia cell line K562, and human hepatocellular carcinoma cell line HepG2 using WST-8 assay at concentrations of 100 µM to investigate the growth inhibition percent (GI%) of each compound using daunorubicin as a reference drug. […]. […] So, as a conclusion on the SAR study of those compounds as antiproliferative agents, the oxime moiety potentiated the anticancer activity and electron donating groups on R1 and R2 played an important role on this activity. Moreover, the sulfamoyl moiety on R3 seems to play a potential role in the activity of the prepared compounds (Table 1).
(§2) All selected compounds and daunorubicin were recorded as the minimum concentration required to inhibit half cell growth (IC50) and the results are listed in Table 2.
(§3) Evaluation of anticancer activity was performed according to the standard water-soluble tetrazolium-8 (WST-8) assay at the Faculty of Engineering, Yamagata University, Yonezawa, Japan, using an MTP-310 absorbance microplate reader. The EGFR inhibitory assay was carried out at the Faculty of Engineering, Yamagata University, Yonezawa, Japan, according to the protocol enzyme linked immunosorbent assay (ELISA) kits (Douset sandwich ELISA test, recombinant mouse EGFR). The JNK-2 inhibitory assay was performed at the Faculty of Engineering, Yamagata University, Yonezawa, Japan, according to the protocol of enzyme-linked immunosorbent assay (ELISA), the assay was carried out using the JNK-2 kit (Simple Step ELISA, pT183/Y185, Abcam Company, Cambridge, CB2 0AX, UK). Apoptosis and cell cycle analysis was performed at Faculty of medicine, Yamagata University, Yamagata, Japan, using BD FACS melody. Molecular docking was performed at the Nano Medical Engineering Laboratory, RIKEN Cluster for Pioneering Researchers, RIEKN, Japan, using ICM-Pro 3.8 software (MolSoft L.L.C., San Diego, CA, USA).
(§4) According to the standard water-soluble tetrazolium-8 (WST-8) assay, the current synthesized compounds have been tested for their anticancer activities against different five cancer cell lines; DLD-1, Hela, K562, SUIT-2, and HepG2 and daunorubicin was used as reference drug by the WST-8 assay. The five cells were maintained in a suspension culture, (Dulbecco’s modified eagle medium (DMEM) for SUIT-2, Hela, and HepG2 or PRIM for K562 and DLD), supplemented with 5% FBS (Fetal Bovine Serum) containing 1% of a penicillin-streptomycin (1:1) mixture. A 100 μL aliquot of cells (10,000 cells/mL) was added to a 96 well plate and incubated for 24 h at 37 °C in a humidified incubator containing 5% CO2 in the air. After 24 h, a 10 μL aliquot of test compound (concentrations varying in the range of 10–150 µM) was added to each of the 96 wells and incubated for 24 h. Then A 10 μL WST-8 solution (mixture of WST-8 and 1-methoxy PMS) was added to each well and the incubation continued for 3 h. The visible absorbance at 450 nm and 630 nm as the reference wavelength of each well was quantified using an MTP-310 absorbance microplate reader. Daunorubicin was used as a positive control. The results of cytotoxicity were recorded as growth inhibition percentages and as IC50 values.

[2] = test system: human hepatocellular carcinoma cell line HepG2; assay: WST-8 antiproliferative assay, HepG2; type: cell-based
Procedure: as §1, §2, §3, §4

[3] = test system: human pancreatic cancer cell line SUIT-2; assay: WST-8 antiproliferative assay, SUIT-2; type: cell-based
Procedure: as §1, §2, §3, §4

[4] = DLD-1, 100 µM, WST-8 assay, read-out: Growth Inhibition (GI%) DLD-1
[5] = HepG2, 100 µM, WST-8 assay, read-out: Growth Inhibition (GI%) HepG2
[6] = SUIT-2, 100 µM, WST-8 assay, read-out: Growth Inhibition (GI%) SUIT-2

Row | melting point | SMILES | inhibition at 100 µM [1, 4] | inhibition at 100 µM [2, 5] | inhibition at 100 µM [3, 6] | inhibition at 100 µM ([1]; DLD-1, read-out: Growth Inhibition (GI%) DLD-1) | IC50 ([1]; DLD-1, read-out: IC50 DLD-1) | inhibition at 100 µM ([2]; HepG2, read-out: Growth Inhibition (GI%) HepG2) | IC50 ([2]; HepG2, read-out: IC50 HepG2) | inhibition at 100 µM ([3]; SUIT-2, read-out: Growth Inhibition (GI%) SUIT-2)
1 | 122 to 124 °C | COc1cc(/C(C)=N/O)ccc1OC(=O)c1cc(-c2ccccc2)n(-c2ccc(S(N)(=O)=O)cc2)n1 [Compound 8f, (E)–4–(1–(Hydroxyimino)ethyl)–2–methoxyphenyl 5–phenyl–1–(4–sulfamoyl phenyl)–1H–pyrazole–3–carboxylate] | 72.9% | 80% | 95% |  |  |  |  | 
2 | 167 to 170 °C | COc1cc(/C(C)=N/O)ccc1OC(=O)c1cc(-c2ccccc2)n(-c2ccccc2)n1 [Compound 8a, (E)–4–(1–(Hydroxyimino)ethyl)2–methoxyphenyl 1,5–diphenyl–1H–pyrazole–3–carboxylate] | 25.7% | 0% | 77% |  |  |  |  | 
3 |  | C/C(=N\O)c1ccc(NC(=O)c2cc(-c3ccccc3)n(-c3ccc(S(N)(=O)=O)cc3)n2)cc1 [Compound 10a, (E)–N–(4–(1–(Hydroxyimino)ethyl)phenyl)–5–phenyl–1–(4–sulfamoylphenyl)–1H–pyrazole–3–carboxamide] | 99% | 72% | 88% |  |  |  |  | 
4 |  | COc1cc(/C(C)=N/O)ccc1OC(=O)c1cc(-c2ccc(C)cc2)n(-c2ccc(S(N)(=O)=O)cc2)n1 [Compound 8g, (E)–4–(1–(Hydroxyimino)ethyl)–2–methoxyphenyl 1–(4–sulfamoylphenyl)–5–p–tolyl–1H–pyrazole–3–carboxylate] | 85.8% | 93% | 96% |  |  |  |  | 
5 | 115 to 118 °C | COc1ccc(-c2cc(C(=O)Oc3ccc(/C(C)=N/O)cc3OC)nn2-c2ccccc2)cc1OC [Compound 8e, (E)–4–(1–(Hydroxyimino)ethyl)–2–methoxyphenyl 5–(3,4–dimethoxy phenyl)–1–phenyl–1H–pyrazole–3–carboxylate] | 29.2% | 99% | 83% |  |  |  |  | 
6 | 110 to 112 °C | COc1ccc(-c2cc(C(=O)Nc3ccc(/C(C)=N/O)cc3)nn2-c2ccc(S(N)(=O)=O)cc2)cc1 [Compound 10b, (E)–N–(4–(1–(Hydroxyimino)ethyl)phenyl)–5–(4–methoxyphenyl)–1–(4–sulfamoylphenyl)–1H–pyrazole–3–carboxamide] | 72.5% | 2% | 50% |  |  |  |  | 
7 | 123 to 125 °C | COc1cc(/C(C)=N/O)ccc1OC(=O)c1cc(-c2ccc(C)cc2)n(-c2ccccc2)n1 [Compound 8b, (E)–4–(1–(Hydroxyimino)ethyl)–2–methoxyphenyl 1–phenyl–5–p–tolyl–1H–pyrazole–3–carboxylate] | 92% | 107% | 102% |  |  |  |  | 
8 |  | COc1cc(/C(C)=N/O)ccc1OC(=O)c1cc(-c2ccc(Cl)cc2)n(-c2ccc(S(N)(=O)=O)cc2)n1 [Compound 8i, (E)–4–(1–(Hydroxyimino)ethyl)–2–methoxyphenyl 5–(4–chlorophenyl)–1–(4–sulfamoyl phenyl)–1H–pyrazole–3–carboxylate] | 34% | 90% | 98% |  |  |  |  | 
9 | 125 to 127 °C | COc1ccc(-c2cc(C(=O)Oc3ccc(/C(C)=N/O)cc3OC)nn2-c2ccc(S(N)(=O)=O)cc2)cc1 [Compound 8h, (E)–4–(1–(Hydroxyimino)ethyl)–2–methoxyphenyl 5–(4–methoxyphenyl)–1–(4–sulfamoyl phenyl)–1H–pyrazole–3–carboxylate] | 52.3% | 63% | 73% |  |  |  |  | 
10 |  | COc1ccc(-c2cc(C(=O)Nc3ccc(/C(C)=N/O)cc3)nn2-c2ccc(S(N)(=O)=O)cc2)cc1OC [Compound 10c, (E)–5–(3,4–Dimethoxyphenyl)–N–(4–(1–(hydroxyimino)ethyl)phenyl)–1–(4–sulfamoyl phenyl)–1H–pyrazole–3–carboxamide] | 92.4% | 52% | 103% |  |  |  |  | 

Row | SMILES | melting point | inhibition at 100 µM [1, 4] | inhibition at 100 µM [2, 5] | inhibition at 100 µM [3, 6] | inhibition at 100 µM ([1]; DLD-1, read-out: Growth Inhibition (GI%) DLD-1) | IC50 ([1]; DLD-1, read-out: IC50 DLD-1) | inhibition at 100 µM ([2]; HepG2, read-out: Growth Inhibition (GI%) HepG2) | IC50 ([2]; HepG2, read-out: IC50 HepG2) | inhibition at 100 µM ([3]; SUIT-2, read-out: Growth Inhibition (GI%) SUIT-2)
11 | COc1cc(/C(C)=N/O)ccc1OC(=O)c1cc(-c2ccc(Cl)cc2)n(-c2ccccc2)n1 [Compound 8d, (E)–4–(1–(Hydroxyimino)ethyl)–2–methoxyphenyl 5–(4–chlorophenyl)–1–phenyl–1H–pyrazole–3–carboxylate] | 106 to 109 °C |  |  |  | 72% | 14.4 µM | 98% | 23.3 µM | 77%
